Reference: the supplement of paper PMC10307832

Legend:
Assay in all cases: relative viability (nuclei count vs DMSO), 5 days (fraction); higher = more cells survive
BEN = tested on: BEN
In short: (§1)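 Lung cancer cell lines were seeded in 1536-well plates and dosed by pin tool the next day, with either a single drug or a fixed anchor-drug dose combined with five library-drug doses (not always all listed) spaced in √10 steps. Five days later, one step fixed the cells and stained their nuclei (final 0.05% Triton X-100, 1% formaldehyde, 1 ug/ml Hoechst), and nuclei were counted on 4× images. Relative viability is the nuclei count in treated wells divided by the count in vehicle wells, and each value is the median of duplicate plates.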

H3255 = tested on: H3255
In short: as §1

HCC-15 = tested on: HCC-15
In short: as §1

HCC-78 = tested on: HCC-78
In short: as §1

LC-2-ad = tested on: LC-2-ad
In short: as §1

LCLC-97TM1 = tested on: LCLC-97TM1
In short: as §1

LK-2 = tested on: LK-2
In short: as §1

LU99A = tested on: LU99A
In short: as §1

LXF-289 = tested on: LXF-289
In short: as §1

NCI-H1651 = tested on: NCI-H1651
In short: as §1

NCI-H1666 = tested on: NCI-H1666
In short: as §1

NCI-H1944 = tested on: NCI-H1944
In short: as §1

NCI-H2087 = tested on: NCI-H2087
In short: as §1

NCI-H322M = tested on: NCI-H322M
In short: as §1

NCI-H358 = tested on: NCI-H358
In short: as §1

NCI-H596 = tested on: NCI-H596
In short: as §1

NCI-H650 = tested on: NCI-H650
In short: as §1

NCI-H661 = tested on: NCI-H661
In short: as §1

NCI-H838 = tested on: NCI-H838
In short: as §1

PC-3 [JPC-3] = tested on: PC-3 [JPC-3]
In short: as §1

SK-MES-1 = tested on: SK-MES-1
In short: as §1

UMC-11 = tested on: UMC-11
In short: as §1

`COc1cc(N2CCC(C(N)=O)CC2)ccc1Nc1nc(N)c(Cl)c(Nc2ccccc2S(=O)(=O)C(C)C)n1` [HG-5-88-01] + Cc1nc(NC(=O)N2CCC[C@H]2C(N)=O)sc1-c1ccnc(C(C)(C)C(F)(F)F)c1 [Alpelisib] (partner 2 µM) gave a relative viability (BEN; first compound 0.04 µM) of 0.948, a relative viability (BEN; first compound 0.1265 µM) of 1.03 and a relative viability (BEN; first compound 0.4 µM) of 1.04. For the same compound, the relative viability (BEN; first compound 1.265 µM) was 0.853, the relative viability (BEN; first compound 4 µM) was 1.15 and the relative viability (H3255; first compound 0.04 µM) was 0.714. The relative viability (H3255; first compound 0.1265 µM) was 0.63, the relative viability (H3255; first compound 0.4 µM) was 0.645 and the relative viability (H3255; first compound 4 µM) was 0.422. For the same compound, the relative viability (HCC-15; first compound 0.04 µM) was 0.925, the relative viability (HCC-15; first compound 0.1265 µM) was 0.865 and the relative viability (HCC-15; first compound 0.4 µM) was 0.936. The relative viability (HCC-15; first compound 1.265 µM) was 0.832, the relative viability (HCC-15; first compound 4 µM) was 0.775 and the relative viability (HCC-78; first compound 0.04 µM) was 0.352. For the same compound, the relative viability (HCC-78; first compound 0.1265 µM) was 0.304, the relative viability (HCC-78; first compound 0.4 µM) was 0.263 and the relative viability (HCC-78; first compound 1.265 µM) was 0.207. For the same compound, the relative viability (HCC-78; first compound 4 µM) was 0.241, the relative viability (LC-2-ad; first compound 0.04 µM) was 0.91 and the relative viability (LC-2-ad; first compound 0.1265 µM) was 0.924. The relative viability (LC-2-ad; first compound 0.4 µM) was 0.84, the relative viability (LC-2-ad; first compound 1.265 µM) was 0.856 and the relative viability (LC-2-ad; first compound 4 µM) was 0.871. For the same compound, the relative viability (LCLC-97TM1; first compound 0.04 µM) was 0.264, the relative viability (LCLC-97TM1; first compound 0.1265 µM) was 0.217 and the relative viability (LCLC-97TM1; first compound 0.4 µM) was 0.198. The relative viability (LCLC-97TM1; first compound 1.265 µM) was 0.196, the relative viability (LCLC-97TM1; first compound 4 µM) was 0.142 and the relative viability (LK-2; first compound 0.04 µM) was 1.16. It also gave a relative viability (LK-2; first compound 0.1265 µM) of 1.23, a relative viability (LK-2; first compound 0.4 µM) of 0.975 and a relative viability (LK-2; first compound 1.265 µM) of 0.632. The relative viability (LK-2; first compound 4 µM) was 1.8, the relative viability (LU99A; first compound 0.04 µM) was 0.561 and the relative viability (LU99A; first compound 0.1265 µM) was 0.514. It also gave a relative viability (LU99A; first compound 0.4 µM) of 0.513, a relative viability (LU99A; first compound 1.265 µM) of 0.552 and a relative viability (LU99A; first compound 4 µM) of 0.422. The relative viability (LXF-289; first compound 0.04 µM) was 1.05, the relative viability (LXF-289; first compound 0.1265 µM) was 1.04 and the relative viability (LXF-289; first compound 0.4 µM) was 1. It also gave a relative viability (LXF-289; first compound 1.265 µM) of 1.08, a relative viability (LXF-289; first compound 4 µM) of 0.968 and a relative viability (NCI-H1651; first compound 0.04 µM) of 0.927. For the same compound, the relative viability (NCI-H1651; first compound 0.1265 µM) was 1, the relative viability (NCI-H1651; first compound 0.4 µM) was 0.962 and the relative viability (NCI-H1651; first compound 1.265 µM) was 0.906. For the same compound, the relative viability (NCI-H1651; first compound 4 µM) was 1.2, the relative viability (NCI-H1666; first compound 0.04 µM) was 1 and the relative viability (NCI-H1666; first compound 0.1265 µM) was 1.02. For the same compound, the relative viability (NCI-H1666; first compound 0.4 µM) was 0.816, the relative viability (NCI-H1666; first compound 1.265 µM) was 0.706 and the relative viability (NCI-H1666; first compound 4 µM) was 0.657. The relative viability (NCI-H1944; first compound 0.04 µM) was 0.801, the relative viability (NCI-H1944; first compound 0.1265 µM) was 0.833 and the relative viability (NCI-H1944; first compound 0.4 µM) was 1.01. The relative viability (NCI-H1944; first compound 1.265 µM) was 0.71, the relative viability (NCI-H1944; first compound 4 µM) was 0.844 and the relative viability (NCI-H2087; first compound 0.04 µM) was 0.967. The relative viability (NCI-H2087; first compound 0.1265 µM) was 1.17, the relative viability (NCI-H2087; first compound 0.4 µM) was 0.997 and the relative viability (NCI-H2087; first compound 1.265 µM) was 1.04. It also gave a relative viability (NCI-H2087; first compound 4 µM) of 0.974, a relative viability (NCI-H322M; first compound 0.04 µM) of 0.774 and a relative viability (NCI-H322M; first compound 0.1265 µM) of 0.841. It also gave a relative viability (NCI-H322M; first compound 0.4 µM) of 0.903, a relative viability (NCI-H322M; first compound 1.265 µM) of 0.726 and a relative viability (NCI-H322M; first compound 4 µM) of 0.639. It also gave a relative viability (NCI-H358; first compound 0.04 µM) of 0.845, a relative viability (NCI-H358; first compound 0.1265 µM) of 0.692 and a relative viability (NCI-H358; first compound 0.4 µM) of 0.497. It also gave a relative viability (NCI-H358; first compound 1.265 µM) of 0.432, a relative viability (NCI-H358; first compound 4 µM) of 0.323 and a relative viability (NCI-H596; first compound 0.04 µM) of 0.529. For the same compound, the relative viability (NCI-H596; first compound 0.1265 µM) was 0.477, the relative viability (NCI-H596; first compound 0.4 µM) was 0.587 and the relative viability (NCI-H596; first compound 1.265 µM) was 0.362. It also gave a relative viability (NCI-H596; first compound 4 µM) of 0.493, a relative viability (NCI-H650; first compound 0.04 µM) of 0.689 and a relative viability (NCI-H650; first compound 0.1265 µM) of 1.18. The relative viability (NCI-H650; first compound 0.4 µM) was 1.04, the relative viability (NCI-H650; first compound 1.265 µM) was 0.816 and the relative viability (NCI-H650; first compound 4 µM) was 0.8. The relative viability (NCI-H661; first compound 0.04 µM) was 0.609, the relative viability (NCI-H661; first compound 0.1265 µM) was 0.773 and the relative viability (NCI-H661; first compound 0.4 µM) was 0.916. The relative viability (NCI-H661; first compound 4 µM) was 0.693, the relative viability (NCI-H838; first compound 0.04 µM) was 1 and the relative viability (NCI-H838; first compound 0.1265 µM) was 1.1. For the same compound, the relative viability (NCI-H838; first compound 0.4 µM) was 0.917, the relative viability (NCI-H838; first compound 1.265 µM) was 0.9 and the relative viability (NCI-H838; first compound 4 µM) was 0.896. The relative viability (PC-3 [JPC-3]; first compound 0.04 µM) was 0.965, the relative viability (PC-3 [JPC-3]; first compound 0.1265 µM) was 1.04 and the relative viability (PC-3 [JPC-3]; first compound 0.4 µM) was 1. For the same compound, the relative viability (PC-3 [JPC-3]; first compound 1.265 µM) was 0.971, the relative viability (PC-3 [JPC-3]; first compound 4 µM) was 0.825 and the relative viability (SK-MES-1; first compound 0.04 µM) was 0.925. It also gave a relative viability (SK-MES-1; first compound 0.1265 µM) of 0.582, a relative viability (SK-MES-1; first compound 0.4 µM) of 1.07 and a relative viability (SK-MES-1; first compound 1.265 µM) of 0.941. The relative viability (SK-MES-1; first compound 4 µM) was 0.86, the relative viability (UMC-11; first compound 0.04 µM) was 1.01 and the relative viability (UMC-11; first compound 0.1265 µM) was 1. For the same compound, the relative viability (UMC-11; first compound 0.4 µM) was 0.998, the relative viability (UMC-11; first compound 1.265 µM) was 0.945 and the relative viability (UMC-11; first compound 4 µM) was 0.954.
